Among the targets are CDK2 (Homo sapiens, UniProt P24941); CSK (Homo sapiens, UniProt P41240); DYRK2 (Homo sapiens, UniProt Q92630); EPHA2 (Homo sapiens, UniProt P29317); EPHB3 (Homo sapiens, UniProt P54753); FGFR1 (Homo sapiens, UniProt P11362); IRAK1 (Homo sapiens, UniProt P51617); KIT (Homo sapiens, UniProt P10721); LIMK1 (Homo sapiens, UniProt P53667); MAP2K2 (Homo sapiens, UniProt P36507); MAP3K1 (Homo sapiens, UniProt Q13233); MAP3K11 (Homo sapiens, UniProt Q16584); MAPK11 (Homo sapiens, UniProt Q15759); NEK3 (Homo sapiens, UniProt P51956); PRKCA (Homo sapiens, UniProt P17252); SNRK (Homo sapiens, UniProt Q9NRH2); STK10 (Homo sapiens, UniProt O94804); STK11 (Homo sapiens, UniProt Q15831); STRADA (Homo sapiens, UniProt Q7RTN6); TNIK (Homo sapiens, UniProt Q9UKE5); WEE1 (Homo sapiens, UniProt P30291).

What all share (assay): biochemical
What all share (design): species or system HEK293/K-562/placenta mixed human extract; Kinobeads chemoproteomic competition binding, quantified by TMT LC-MS/MS, dose response up to 20 uM

Sequence of STRADA (Q7RTN6 whole entry): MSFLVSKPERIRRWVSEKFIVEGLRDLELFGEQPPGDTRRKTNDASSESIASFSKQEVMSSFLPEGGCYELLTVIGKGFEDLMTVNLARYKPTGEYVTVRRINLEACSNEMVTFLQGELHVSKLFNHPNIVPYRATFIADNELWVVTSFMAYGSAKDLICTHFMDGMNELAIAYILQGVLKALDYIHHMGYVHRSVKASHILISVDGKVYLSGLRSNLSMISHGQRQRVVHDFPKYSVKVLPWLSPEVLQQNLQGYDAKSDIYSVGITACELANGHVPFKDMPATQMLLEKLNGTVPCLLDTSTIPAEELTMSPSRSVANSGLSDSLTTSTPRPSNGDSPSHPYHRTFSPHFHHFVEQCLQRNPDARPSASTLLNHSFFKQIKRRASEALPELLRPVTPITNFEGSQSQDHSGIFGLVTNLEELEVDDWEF
Sequence of FGFR1 (P11362 whole entry): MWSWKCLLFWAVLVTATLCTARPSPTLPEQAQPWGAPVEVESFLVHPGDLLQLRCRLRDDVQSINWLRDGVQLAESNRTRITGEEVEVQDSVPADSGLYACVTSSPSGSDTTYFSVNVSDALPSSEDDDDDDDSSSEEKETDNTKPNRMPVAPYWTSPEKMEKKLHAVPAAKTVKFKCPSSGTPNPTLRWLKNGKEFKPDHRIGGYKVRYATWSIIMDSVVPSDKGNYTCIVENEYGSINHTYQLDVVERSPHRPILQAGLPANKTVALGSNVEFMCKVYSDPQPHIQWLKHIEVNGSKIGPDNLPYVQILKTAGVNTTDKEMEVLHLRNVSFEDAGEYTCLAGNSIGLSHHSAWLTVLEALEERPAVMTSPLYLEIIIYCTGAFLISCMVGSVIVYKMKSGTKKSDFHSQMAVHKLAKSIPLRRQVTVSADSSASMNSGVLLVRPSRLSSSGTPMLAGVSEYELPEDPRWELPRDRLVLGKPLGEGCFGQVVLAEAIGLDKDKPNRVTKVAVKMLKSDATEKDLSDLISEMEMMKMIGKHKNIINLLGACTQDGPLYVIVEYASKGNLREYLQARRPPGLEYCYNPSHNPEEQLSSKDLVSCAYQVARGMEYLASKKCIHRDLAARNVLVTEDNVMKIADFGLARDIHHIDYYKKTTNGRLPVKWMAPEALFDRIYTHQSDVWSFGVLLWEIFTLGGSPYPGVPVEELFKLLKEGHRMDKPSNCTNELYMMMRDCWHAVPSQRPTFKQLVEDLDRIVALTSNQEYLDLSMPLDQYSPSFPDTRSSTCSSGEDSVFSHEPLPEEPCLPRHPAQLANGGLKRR
Sequence of KIT (P10721 whole entry): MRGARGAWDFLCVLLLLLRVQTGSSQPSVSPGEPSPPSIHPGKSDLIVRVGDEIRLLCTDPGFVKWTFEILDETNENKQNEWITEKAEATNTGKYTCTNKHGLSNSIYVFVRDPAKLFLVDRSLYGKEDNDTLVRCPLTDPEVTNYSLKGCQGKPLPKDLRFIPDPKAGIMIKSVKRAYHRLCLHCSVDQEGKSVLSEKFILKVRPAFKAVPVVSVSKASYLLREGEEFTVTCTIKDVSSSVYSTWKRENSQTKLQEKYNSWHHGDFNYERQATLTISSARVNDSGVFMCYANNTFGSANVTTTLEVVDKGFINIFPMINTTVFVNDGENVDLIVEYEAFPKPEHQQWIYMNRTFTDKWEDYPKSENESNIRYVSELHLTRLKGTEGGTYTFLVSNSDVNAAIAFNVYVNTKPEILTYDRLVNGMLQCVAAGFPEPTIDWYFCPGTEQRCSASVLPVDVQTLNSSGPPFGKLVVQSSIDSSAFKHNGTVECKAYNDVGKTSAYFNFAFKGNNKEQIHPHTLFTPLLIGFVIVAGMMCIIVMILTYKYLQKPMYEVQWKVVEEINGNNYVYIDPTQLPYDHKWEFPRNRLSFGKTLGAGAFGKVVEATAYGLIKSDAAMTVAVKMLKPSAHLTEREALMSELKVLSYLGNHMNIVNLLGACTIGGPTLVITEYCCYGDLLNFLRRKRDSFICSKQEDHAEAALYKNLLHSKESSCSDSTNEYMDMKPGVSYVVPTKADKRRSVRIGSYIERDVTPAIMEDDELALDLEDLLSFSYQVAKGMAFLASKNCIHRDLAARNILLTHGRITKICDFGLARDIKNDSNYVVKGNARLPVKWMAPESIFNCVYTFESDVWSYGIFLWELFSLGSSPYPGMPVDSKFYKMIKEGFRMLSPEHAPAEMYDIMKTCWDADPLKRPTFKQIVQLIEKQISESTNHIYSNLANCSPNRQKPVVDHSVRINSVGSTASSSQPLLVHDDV
Sequence of EPHA2 (P29317 whole entry): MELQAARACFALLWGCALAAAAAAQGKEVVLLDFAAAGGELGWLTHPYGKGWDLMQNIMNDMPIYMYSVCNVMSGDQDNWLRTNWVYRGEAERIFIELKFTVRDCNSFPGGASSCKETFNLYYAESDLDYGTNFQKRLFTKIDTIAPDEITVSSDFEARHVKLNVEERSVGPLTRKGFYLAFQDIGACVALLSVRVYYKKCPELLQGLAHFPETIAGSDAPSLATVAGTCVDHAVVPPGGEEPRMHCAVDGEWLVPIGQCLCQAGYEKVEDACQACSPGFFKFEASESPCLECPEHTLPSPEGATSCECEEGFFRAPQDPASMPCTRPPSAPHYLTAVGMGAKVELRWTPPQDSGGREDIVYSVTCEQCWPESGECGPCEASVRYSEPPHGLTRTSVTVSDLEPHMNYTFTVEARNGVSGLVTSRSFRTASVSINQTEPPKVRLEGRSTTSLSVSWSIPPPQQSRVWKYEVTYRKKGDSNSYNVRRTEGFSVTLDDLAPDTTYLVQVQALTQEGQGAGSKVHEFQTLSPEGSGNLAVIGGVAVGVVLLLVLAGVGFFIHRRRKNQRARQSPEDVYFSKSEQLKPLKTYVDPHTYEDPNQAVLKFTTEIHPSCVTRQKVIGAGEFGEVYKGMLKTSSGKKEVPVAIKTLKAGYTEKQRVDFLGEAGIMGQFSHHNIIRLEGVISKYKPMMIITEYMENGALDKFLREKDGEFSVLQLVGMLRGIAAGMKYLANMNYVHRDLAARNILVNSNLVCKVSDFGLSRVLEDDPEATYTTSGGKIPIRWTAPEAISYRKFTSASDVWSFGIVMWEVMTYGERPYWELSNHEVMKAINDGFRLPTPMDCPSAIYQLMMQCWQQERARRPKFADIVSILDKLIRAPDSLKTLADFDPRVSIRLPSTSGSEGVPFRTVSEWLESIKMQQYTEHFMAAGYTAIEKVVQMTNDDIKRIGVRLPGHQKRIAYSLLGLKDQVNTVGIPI
Sequence of MAP2K2 (P36507 whole entry): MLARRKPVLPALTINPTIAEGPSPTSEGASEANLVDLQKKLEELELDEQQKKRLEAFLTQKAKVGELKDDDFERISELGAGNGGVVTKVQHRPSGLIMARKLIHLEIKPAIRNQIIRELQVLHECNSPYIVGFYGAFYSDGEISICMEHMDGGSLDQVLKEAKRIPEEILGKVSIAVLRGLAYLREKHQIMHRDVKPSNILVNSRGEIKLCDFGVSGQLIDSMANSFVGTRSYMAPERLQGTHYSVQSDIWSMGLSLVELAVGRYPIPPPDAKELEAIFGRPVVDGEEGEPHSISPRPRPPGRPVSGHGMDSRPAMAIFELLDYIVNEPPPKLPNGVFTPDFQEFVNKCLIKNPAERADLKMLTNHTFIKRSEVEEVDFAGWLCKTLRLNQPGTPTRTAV
Sequence of SNRK (Q9NRH2 whole entry): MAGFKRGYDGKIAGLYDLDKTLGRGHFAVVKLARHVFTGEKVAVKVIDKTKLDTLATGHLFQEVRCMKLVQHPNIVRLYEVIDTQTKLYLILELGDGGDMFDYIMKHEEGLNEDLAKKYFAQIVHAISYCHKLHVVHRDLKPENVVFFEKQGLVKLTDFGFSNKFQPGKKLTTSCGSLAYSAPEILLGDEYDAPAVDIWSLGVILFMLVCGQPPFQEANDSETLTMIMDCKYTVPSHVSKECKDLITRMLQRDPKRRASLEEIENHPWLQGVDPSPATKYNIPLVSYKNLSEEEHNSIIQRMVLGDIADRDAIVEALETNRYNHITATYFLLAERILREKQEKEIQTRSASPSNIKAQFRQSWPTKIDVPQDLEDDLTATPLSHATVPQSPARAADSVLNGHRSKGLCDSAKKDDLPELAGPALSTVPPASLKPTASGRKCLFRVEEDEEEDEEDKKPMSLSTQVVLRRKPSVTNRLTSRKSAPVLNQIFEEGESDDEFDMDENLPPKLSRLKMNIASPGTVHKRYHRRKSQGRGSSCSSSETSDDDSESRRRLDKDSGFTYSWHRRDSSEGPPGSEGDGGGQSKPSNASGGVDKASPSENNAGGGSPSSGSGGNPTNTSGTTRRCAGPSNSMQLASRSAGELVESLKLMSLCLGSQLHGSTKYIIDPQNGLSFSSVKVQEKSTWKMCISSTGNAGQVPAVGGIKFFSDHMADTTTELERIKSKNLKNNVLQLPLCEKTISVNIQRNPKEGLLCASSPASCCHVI

Usually IC50 stands for the point on the concentration scale where inhibition reaches its midpoint. For `COc1nc(N[C@H]2CC[C@H](NS(=O)(=O)CC(C)C)CC2)nc2[nH]nc(N3CCOC[C@H]3C)c12` [compound 39, N-(trans-4-((4-Methoxy-3-((R)-3-methylmorpholino)-1H-pyrazolo[3,4-d]pyrimidin-6-yl)amino)cyclohexyl)-2-methylpropane-1-sulfonamide], the IC50 at CDK2 was 4.5 µM; on CSK, at least 20 µM; on DYRK2, at least 20 µM; on EPHA2 it was at least 20 µM; at EPHB3, at least 20 µM; at FGFR1, at least 20 µM. Moreover, the IC50 on IRAK1, at KIT, at LIMK1, on MAP2K2, on MAP3K1 and on MAP3K11 was at least 20 µM throughout. The concentration for half-maximal inhibition (IC50) at MAPK11, on NEK3, on PRKCA, at SNRK, at STK10 and at STK11 was at least 20 µM in each case. Besides, the IC50 at STRADA, on TNIK and at WEE1 was at least 20 µM throughout.

(Values after PMC6407917, “Identification of GSK3186899/DDD853651 as a Preclinical Development Candidate for the Treatment of Visceral Leishmaniasis” (Journal of Medicinal Chemistry, 2018).)
